Results: PMC7646944 (2020)

How the values were obtained:
[1] = system: SCA2.1–34 (DNA, aptamer) ACCTTAAGTGGGGTTCGGGTGGAGTTTATGGGGT; experiment: isothermal titration calorimetry
[2] = system: SCA2.1–40 (DNA, aptamer) CTTACGACCTTAAGTGGGGTTCGGGTGGAGTTTATGGGGT; experiment: isothermal titration calorimetry

KD [1] [µM] | KD [2] [µM] | SMILES
96 ± 4.0 | 292 ± 14 | CCCC(C(=O)c1ccc2c(c1)OCO2)N1CCCC1 (stereo not drawn)
– | 0.65 ± 0.03 | CCC[C@H](C(=O)c1ccc2c(c1)OCO2)N1CCCC1
